The text below walks through data of US5506256A, “Proline derivatives possessing prolyl endopeptidase-inhibitory activity” (Yoshitomi Pharmaceutical Industries, Ltd., priority 1990, dated 1996).

In one test the target is T1, prolyl endopeptidase (Rattus norvegicus, UniProt O70196).
T1 construct: prolyl endopeptidase extracted from rat brain; from tissue; host or cells: rat brain
Put plainly: Prolyl endopeptidase-inhibitory activity. The test is classed as biochemical. The conditions noted are these: for inhibition at 0.1 µM / inhibition at 1 µM: read-out: inhibition rate, prolyl endopeptidase; for IC50: prolyl endopeptidase extracted from rat brain, pH 7.0, 30° C., read-out: IC50. The essentials:
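Rat brain prolyl endopeptidase was preincubated with compound for 30 min at 30 °C in 0.1 M potassium sodium phosphate, pH 7.0. Substrate Suc-Gly-Pro-MCA was then added from a 0.2 mM stock and the reaction run 1 h at 30 °C. After ice stop, fluorescence was read (ex 370/em 440 nm), and IC50 was estimated graphically from % inhibition.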

Another test concerns the target T2, trypsin (Bos taurus, UniProt P00760).
T2 construct: purchased Sigma; host or cells: bovine pancreas
T2 sequence (P00760 24-246): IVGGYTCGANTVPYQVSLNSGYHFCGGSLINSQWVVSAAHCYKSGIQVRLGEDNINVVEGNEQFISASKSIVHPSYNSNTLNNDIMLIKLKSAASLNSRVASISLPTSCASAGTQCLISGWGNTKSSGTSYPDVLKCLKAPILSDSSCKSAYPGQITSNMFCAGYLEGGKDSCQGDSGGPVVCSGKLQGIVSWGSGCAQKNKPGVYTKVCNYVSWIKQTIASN
Put plainly: Determination of trypsin-inhibitory activity. Type of test: biochemical, bovine. The conditions noted are these: read-out: inhibition rate, trypsin. In outline:
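Bovine pancreatic trypsin and compound in 50 mM Tris-HCl pH 8.0 with Pro-Phe-Arg-MCA substrate, 1 h at 30 °C, stopped on ice. Fluorescence at ex 370/em 440 nm. Inhibition rate from compound, no-enzyme and no-compound wells.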

For another test, the target named is T3, chymotrypsin (Bos taurus, UniProt P00766).
T3 construct: purchased Sigma; host or cells: bovine pancreas
In words: Determination of chymotrypsin-inhibitory activity. Type of test: biochemical, bovine. Conditions: read-out: inhibition rate, chymotrypsin. The essentials: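 Bovine pancreatic chymotrypsin (0.2 μM enzyme solution) assayed in 50 mM Tris-HCl, pH 8.0, with the fluorogenic substrate Suc-Leu-Leu-Val-Tyr-MCA. Fluorescence was read with and without inhibitor, and percent inhibition was calculated from the fluorescence values.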

The subject of a further test is leucine aminopeptidase. In words: Determination of leucine aminopeptidase-inhibitory activity. The test is classed as biochemical, swine. Set-up: unit not given here. The essentials: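 Swine kidney leucine aminopeptidase ([…] enzyme solution) was measured in 50 mM Tris-HCl pH 8.0 with 7-leucyl-4-methyl-coumarinamide (200 μM substrate solution). Inhibition rate was calculated from fluorescence readings.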

The next test concerns the target T4, cathepsin B (Bos taurus, UniProt P07688).
T4 construct: purchased Sigma; host or cells: bovine spleen
Put plainly: Determination of cathepsin B-inhibitory activity. The test is classed as biochemical, bovine. The conditions noted are these: read-out: inhibition rate, cathepsin B. In outline:
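Bovine spleen cathepsin B (0.02 μM solution) was assayed in 100 mM sodium phosphate, pH 6.0, with 1.33 mM EDTA. The substrate was Z-Phe-Arg-4-methylcoumarinamide (200 μM solution). Percent inhibition was calculated from fluorescence readings.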

The next test addresses T5, elastase (Sus scrofa, UniProt P00772).
T5 construct: purchased Sigma; host or cells: swine pancreas
In words: Determination of elastase-inhibitory activity. The test is classed as biochemical, swine. Conditions: read-out: inhibition rate, elastase. In outline: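 Porcine pancreatic elastase (0.2 μM solution) with 200 μM succinyl-Ala-Pro-Ala-4-methylcoumarinamide substrate solution in 1 mM Tris-HCl pH 8.5. Fluorescence measured and inhibition rate calculated by formula.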

SMILES strings stand for the structures.

T5 sequence (P00772 27-266): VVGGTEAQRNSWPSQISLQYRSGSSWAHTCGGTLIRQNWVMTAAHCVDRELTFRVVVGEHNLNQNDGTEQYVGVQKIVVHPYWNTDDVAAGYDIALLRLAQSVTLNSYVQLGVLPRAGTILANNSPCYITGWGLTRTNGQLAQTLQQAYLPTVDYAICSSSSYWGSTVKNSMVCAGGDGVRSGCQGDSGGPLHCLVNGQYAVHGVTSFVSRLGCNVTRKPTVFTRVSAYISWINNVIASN
T1 sequence (O70196 whole entry): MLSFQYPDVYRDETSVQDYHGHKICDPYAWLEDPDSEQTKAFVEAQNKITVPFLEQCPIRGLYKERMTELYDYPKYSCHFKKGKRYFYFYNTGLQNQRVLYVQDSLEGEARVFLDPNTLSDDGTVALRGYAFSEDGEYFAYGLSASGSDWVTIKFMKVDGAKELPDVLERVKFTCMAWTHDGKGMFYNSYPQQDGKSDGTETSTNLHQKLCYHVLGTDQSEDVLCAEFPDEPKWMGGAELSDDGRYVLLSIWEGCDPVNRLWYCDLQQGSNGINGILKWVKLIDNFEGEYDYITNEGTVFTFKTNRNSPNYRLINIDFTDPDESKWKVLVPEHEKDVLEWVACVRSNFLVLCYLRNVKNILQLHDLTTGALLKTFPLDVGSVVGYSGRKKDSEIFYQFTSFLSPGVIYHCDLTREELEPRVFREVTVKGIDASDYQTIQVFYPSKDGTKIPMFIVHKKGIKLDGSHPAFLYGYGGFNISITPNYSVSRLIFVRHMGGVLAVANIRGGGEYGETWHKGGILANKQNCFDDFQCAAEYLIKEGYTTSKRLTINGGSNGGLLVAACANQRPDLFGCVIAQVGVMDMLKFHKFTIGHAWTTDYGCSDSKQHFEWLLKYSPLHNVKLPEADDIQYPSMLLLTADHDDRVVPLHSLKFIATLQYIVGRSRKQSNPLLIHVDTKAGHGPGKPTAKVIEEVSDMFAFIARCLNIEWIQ

On to `O=C(COc1ccccc1)[C@@H]1CCCN1C(=O)[C@@H]1CCCN1C(=O)NCc1ccc(Cl)cc1` [Compound 30, (2S)-1-[N-(4-Chlorobenzylaminocarbonyl)-L-prolyl]-2-(phenoxyacetyl)pyrrolidine], for which the inhibition (commonly the drop in the measured response relative to a control, in per cent) at 0.1 µM at prolyl endopeptidase stood at 99%; on trypsin, 0%; on chymotrypsin, 0%; on cathepsin B, 0%; at elastase, 0%. In addition, at prolyl endopeptidase, the IC50 (commonly the concentration that gives 50% inhibition) is 0.6 nM. Further, the “inhibition rate, leucine aminopeptidase” value in the test with leucine aminopeptidase (0.1 μM) turned out to be 0.

For the compound `CCCCCCCC(=O)N1CCC[C@H]1C(=O)N1CCC[C@H]1C(=O)COc1ccccc1` [Compound 31, (2S)-1-(N-Octanoyl-L-prolyl)-2-(phenoxyacetyl)pyrrolidine], the inhibition at 0.1 µM worked out at 97% at prolyl endopeptidase; 0% on trypsin; 0% at chymotrypsin; 0% at cathepsin B; 0% on elastase. Further, at prolyl endopeptidase, the concentration for half-maximal inhibition (IC50) was determined as 4.5 nM. For the same compound, the “inhibition rate, leucine aminopeptidase” value in the test with leucine aminopeptidase (0.1 μM) stood at 0.

Take `O=C(COCc1ccccc1)[C@@H]1CCCN1C(=O)[C@@H]1CCCN1C(=O)NCc1ccccc1` [Compound 32]: the inhibition at 0.1 µM worked out at 96% on prolyl endopeptidase; 0% at trypsin; 0% at chymotrypsin; 0% at cathepsin B; 0% at elastase. In addition, on prolyl endopeptidase, the IC50 turned out to be 1 nM. For the same compound, the “inhibition rate, leucine aminopeptidase” value in the test on leucine aminopeptidase (0.1 μM) was found to be 0.

On to `O=C(COc1ccccc1)[C@@H]1CCCN1C(=O)[C@@H]1CCCN1C(=O)COc1ccccc1` [Compound 46, (2S)-2-(Phenoxyacetyl)-1-[N-(phenoxyacetyl)-L-prolyl]pyrrolidine], for which the inhibition at 1 µM was 93% at prolyl endopeptidase; 0% on trypsin; 0% at chymotrypsin; 0% on cathepsin B; 0% at elastase. Moreover, at prolyl endopeptidase, the IC50 was determined as 60 nM. Moreover, in the test with leucine aminopeptidase (1 μM), the “inhibition rate, leucine aminopeptidase” value amounted to 0.

Consider `COc1ccc(OCC(=O)[C@@H]2CCCN2C(=O)[C@@H]2CCCN2C(=O)COc2ccccc2)cc1` [Compound 47, (2S)-2-(4-Methoxyphenoxyacetyl)-1-[N-(phenoxyacetyl)-L-prolyl]pyrrolidine], for which the inhibition at 1 µM is 98% at prolyl endopeptidase; 0% at trypsin; 0% on chymotrypsin; 0% at cathepsin B; 0% on elastase. The IC50 at prolyl endopeptidase amounted to 50 nM. Also, the “inhibition rate, leucine aminopeptidase” value in the test with leucine aminopeptidase (1 μM) was 0.

`COc1ccc(OCC(=O)[C@@H]2CCCN2C(=O)[C@@H]2CCCN2C(=O)CNc2ccccc2)cc1` [Compound 48, (2S)-2-(4-Methoxyphenoxyacetyl)-1-[N-(N-phenylglycyl)-L-prolyl]pyrrolidine]: the inhibition at 1 µM was determined as 90% on prolyl endopeptidase; 0% at trypsin; 0% at chymotrypsin; 0% at cathepsin B; 0% on elastase. Besides, the IC50 at prolyl endopeptidase turned out to be 60 nM. In the test with leucine aminopeptidase (1 μM), the “inhibition rate, leucine aminopeptidase” value amounted to 0.

`COc1ccc(OCC(=O)[C@@H]2CCCN2C(=O)[C@@H]2CCCN2C(=O)CSc2ccccc2)cc1` [Compound 49, (25)-2-(4-Methoxyphenoxyacetyl)-1-{N-[(phenylthio)acetyl]-L-prolyl}pyrrolidine]: the inhibition at 1 µM turned out to be 98% on prolyl endopeptidase; 0% at trypsin; 0% at chymotrypsin; 0% at cathepsin B; 0% on elastase. Also, the IC50 on prolyl endopeptidase amounted to 20 nM. For the same compound, in the test with leucine aminopeptidase (1 μM), the “inhibition rate, leucine aminopeptidase” value stood at 0.

Turning to `COc1ccc(OCC(=O)[C@@H]2CCCN2C(=O)[C@@H]2CCCN2C(=O)OCC23CC4CC(CC(C4)C2)C3)cc1` [Compound 50, (2S)-1-{N-[(1-Adamantyl)methoxycarbonyl]-L-prolyl}-2-(4-methoxyphenoxyacetyl)pyrrolidine], the inhibition at 1 µM at prolyl endopeptidase was found to be 97%; at trypsin it was 0%; at chymotrypsin it was 0%; on cathepsin B, 0%; at elastase, 0%. Moreover, the IC50 at prolyl endopeptidase is 500 nM. Besides, the “inhibition rate, leucine aminopeptidase” value in the test on leucine aminopeptidase (1 μM) is on record as 0.

In the case of `O=C(COc1ccccc1)[C@@H]1CCCN1C(=O)[C@@H]1CSCN1C(=O)NCc1ccccc1` [Compound 51, (2S)-1-[N-(Benzylaminocarbonyl)-L-thioprolyl]-2-(phenoxyacetyl)pyrrolidine], the inhibition at 1 µM on prolyl endopeptidase came out at 98%; at trypsin, 0%; on chymotrypsin, 0%; on cathepsin B, 0%; on elastase, 0%. Besides, the IC50 on prolyl endopeptidase was 15 nM. Also, the “inhibition rate, leucine aminopeptidase” value in the test on leucine aminopeptidase (1 μM) came to 0.

For `CCOC(=O)CN(Cc1ccccc1)C(=O)N1CCC[C@H]1C(=O)N1CCC[C@H]1C(=O)COc1ccccc1` [Compound 52, (2S)-1-{N-[N-Benzyl-N-(ethoxycarbonylmethyl)aminocarbonyl]-L-prolyl}-2-(phenoxyacetyl)pyrrolidine], the inhibition at 0.1 µM on prolyl endopeptidase was determined as 97%; on trypsin, 0%; at chymotrypsin, 0%; at cathepsin B, 0%; at elastase, 0%. In addition, at prolyl endopeptidase, the 50% inhibitory concentration (IC50) was determined as 2 nM. Moreover, the “inhibition rate, leucine aminopeptidase” value with leucine aminopeptidase (0.1 μM) is 0.

Consider `CCOC(=O)[C@@H](NC(=O)N1CCC[C@H]1C(=O)N1CCC[C@H]1C(=O)COc1ccccc1)c1ccccc1` [Compound 53, (2S)-1-[N-[[(S)-α-(Ethoxycarbonyl)benzylamino]carbonyl]-L-prolyl]-2-(phenoxyacetyl)pyrrolidine], for which the inhibition at 1 µM was found to be 96% at prolyl endopeptidase; 0% on trypsin; 0% on chymotrypsin; 0% on cathepsin B; 0% at elastase. For the same compound, the IC50 at prolyl endopeptidase was determined as 30 nM. Further, the “inhibition rate, leucine aminopeptidase” value in the test on leucine aminopeptidase (1 μM) was 0.

Consider `O=C(COc1ccccn1)[C@@H]1CCCN1C(=O)[C@@H]1CCCN1C(=O)NCc1ccccc1` [Compound 54, (2S)-1-[N-(Benzylaminocarbonyl)-L-prolyl]-2-[(2-pyridyloxy)acetyl]pyrrolidine], for which the inhibition at 1 µM at prolyl endopeptidase is 85%; on trypsin it was 0%; at chymotrypsin it was 0%; at cathepsin B, 0%; at elastase, 0%. Moreover, the IC50 at prolyl endopeptidase is 200 nM. Further, in the test with leucine aminopeptidase (1 μM), the “inhibition rate, leucine aminopeptidase” value was 0.
